Measurements from patent publication EP4717275A1, “ANTI-LUNG CANCER COMBINED DRUG AND USE THEREOF” (Gunagdong Yinzhu Pharmaceutical Technology Co., Ltd, priority 2023, dated 2024).
Where two headings read alike, the source gives them in different places. Marks after values point to notes of the source that are not given here.

Legend:
mouse melanoma = conditions: transplanted tumors, dexamethasone by intraperitoneal injection; cited from earlier work
[1] = format: in vivo; conditions: dead/total animals at Day 21; NCI-H1975 study; PO, QD×21
Procedure: (§1) BALB/c Nude mice, female, 8-10 weeks old, 18-20g. The variation of the body weight is ±20% around average body weight. 80 mice were inoculated and 60 mice were grouped.
(§2) The grouping day was designated as Day 0, and administration commenced according to animal body weight.
Animal body weight and tumor volume were measured twice weekly throughout the experiment. Tumor length and width were measured using a digital caliper, with tumor volume estimated from these measurements.
Clinical observations were recorded daily to assess overall health status, weight abnormalities, behavioral changes, and other treatment-related adverse reactions.
In accordance with animal welfare regulations, animals meeting any of the following criteria during the study were removed from the experimental group and euthanized: 1. Body weight loss exceeding 20% compared to Day 0 (BWL ≥ 20%); 2. Severe adverse reactions such as blindness or paralysis; 3. Tumor volume exceeding 2000 mm^3; 4.
The animal body weight change rate (%BWC) is calculated as: (BWt - BW0) / BW0 × 100%, where BWt is the animal body weight at each measurement and BW0 is the animal body weight at grouping.
According to China's NMPA Technical Guidance Principles for Non-clinical Studies of Cytotoxic Antineoplastic Drugs (November 2006), %T/CRTV ≤ 40% and statistically significant P < 0.05 indicate efficacy. Drug-related animal mortality exceeding 20% indicates severe toxicity at that dose.
All experimental data in this study are expressed as Mean ± SEM.

[2] = tested on: human lung cancer NCI-H2228 xenografts; test: Therapeutic effect in vivo on NCI-H2228 xenografts in nude mice; set-up: species or system BALB/c Nude mice; conditions: PO; for Relative tumor proliferation rate(%) Day 21: %T/CRTV; for Tumor growth inhibition rate(%) Day 21: %TGITV from tumor volume vs control; for Tumor growth inhibition rate(%) Day 21 / Tumor volume (mm^3,Mean±SEM) Day 21 / Relative tumor volume Day 21: QD× 21; for Tumor inhibition rate(%) Day 21: %TGITW from tumor weight vs control; for Tumor volume (mm^3,Mean±SEM) Day 21: QD×21, dose per group; for Relative tumor volume Day 21: RTV = Vt/V0, Mean ± SEM
Procedure: as §1
Table 9 Experimental design of therapeutic effect of the drugs in vivo
NCI-H2228 cells were cultured in RPMI 1640 medium supplemented with 10% FBS and maintained in a 37°C, 5% CO2 humidified incubator.
Log-phase NCI-H2228 cells were harvested, resuspended in RPMI 1640 basal medium containing 50% Matrigel, and adjusted to a concentration of 2 × 10^7 cells/mL. Under aseptic conditions, 0.1 mL of the cell suspension was injected subcutaneously into the right flank of mice at a concentration of 2 × 10^6 cells/0.1 mL/mouse.
When the mean tumor volume reached approximately 150 mm^3, animals were randomly grouped based on tumor volume, ensuring inter-group tumor volume variation was less than 10% of the mean.
as §2
(§3) The same as the therapeutic effect evaluation experiments for Examples 1-2 and Comparative Examples 1-3.

[3] = Animal body weight, fatality and toxicity observation in the NCI-H2228 xenograft study; format: in vivo, BALB/c Nude mice; conditions: dead/total animals at Day 21; NCI-H2228 study; PO, QD×21
Description: as §1, §2, §3

[4] = tested on: human lung cancer NCI-H1975 xenografts; test: Therapeutic effect in vivo on NCI-H1975 xenografts in nude mice; set-up: species or system BALB/c Nude mice; conditions: PO; for Relative tumor proliferation rate(%) Day 21: %T/CRTV; for Tumor growth inhibition rate(%) Day 21: %TGITV from tumor volume vs control; for Tumor inhibition rate(%) Day 21: %TGITW from tumor weight vs control; for Tumor volume (mm^3,Mean±SEM) Day 21: QD×21, dose per group; for Relative tumor volume Day 21: RTV = Vt/V0, Mean ± SEM
Procedure: BALB/c Nude mice, female, 8-10 weeks old, 18-20g. […] Table 2 Experimental design of therapeutic effect of the drugs in vivo […] NCI-H1975 cells were cultured in RPMI 1640 medium supplemented with 10% FBS and maintained in a 37°C, 5% CO2 humidified incubator. Log-phase NCI-H1975 cells were harvested, resuspended in RPMI 1640 basal medium containing 50% Matrigel, and adjusted to a concentration of 2 × 10^7 cells/mL. Under aseptic conditions, 0.1 mL of the cell suspension was injected subcutaneously into the right flank of mice at a concentration of 2 × 10^6 cells/0.1 mL/mouse. […] The grouping day was designated as Day 0, and administration commenced according to animal body weight. […] Animal body weight and tumor volume were measured twice weekly throughout the experiment. Tumor length and width were measured using a digital caliper, with tumor volume estimated from these measurements. After the final weighing on Day 21, remaining animals were euthanized with CO2. Tumors were weighed, photographed, and the experiment concluded. […] Tumor growth inhibition rate (%TGITV) is calculated as: […] Relative Tumor Volume (RTV) is calculated as Vt/V0, where V0 is the tumor volume at grouping and Vt is the tumor volume at each measurement. Relative Tumor Growth Rate (%T/CRTV) is calculated as TRTV/CRTV × 100%, where TRTV is the RTV of the treatment group and CRTV is the RTV of the negative control group. Tumor growth inhibition rate (%TGITW) is calculated as: ([…] × 100%, where TWc is the average tumor weight in the negative control group and TWT is the average tumor weight in the treatment group. […] Drug-related animal mortality exceeding 20% indicates severe toxicity at that dose. All experimental data in this study are expressed as Mean ± SEM. The evaluation of the combination index (CI) of drugs relies on the following equation: […]), wherein E(A+B) is the inhibition rate of combination drug, EA and EB is the inhibition rate of drug A and drug B respectively. E(A+B) in the equation represents 'measured synergistic effect' and (EA+EB-EA×EB) is 'expected synergistic effect'. CI=0.85-1.15 indicates a mere addition of the effect of two drugs, >1.15 indicates enhancement (or synergy), and <0.85 indicates antagonism. • Combination index of tumor growth inhibition: CAI, 40mg/kg + AZD9291, 1mg/kg: 1.27; […] CAI, 40mg/kg + AZD9291, 1mg/kg: 1.20; […]

[5] = QD×21, listed as Comparative Example 5
[6] = QD×21, listed as Comparative Example 6
[7] = QD×21, listed as Comparative Example 5, CAI, 20mg /kg
[8] = QD×21, listed as Comparative Example 6, CAI, 40mg /kg
[9] = QD×21, listed as Comparative Example 2
[10] = QD×21, listed as Comparative Example 3

In the case of `NC(=O)c1nnn(Cc2cc(Cl)c(C(=O)c3ccc(Cl)cc3)c(Cl)c2)c1N` [CAI, 5-Amino-1-[3,5-dichloro-4-(4-chlorobenzoyl chloride)benzyl]-1H-1,2,3-triazole-4-benzamide], the inhibition rate (mouse melanoma) is listed as 39.8%, the Fatality [1] is listed as 0/10 (Day 21) and the “Relative tumor proliferation rate(%) Day 21” value [2, 5] is listed as 69.94%. For the same compound, the “Relative tumor proliferation rate(%) Day 21” value [2, 6] was 68.46%, the “Tumor growth inhibition rate(%) Day 21” value [2, 7] was 33.39% and the “Tumor growth inhibition rate(%) Day 21” value [2, 8] was 34.01%. For the same compound, the “Tumor inhibition rate(%) Day 21” value [2, 5] was 39.40%, the “Tumor inhibition rate(%) Day 21” value [2, 6] was 42.96% and the “Tumor volume (mm^3,Mean±SEM) Day 21” value ([2]; listed as Comparative Example 5, CAI, 20mg /kg) was 979.25± 64.93* mm^3. For the same compound, the “Tumor volume (mm^3,Mean±SEM) Day 21” value ([2]; listed as Comparative Example 6, CAI, 40mg /kg) was 970.11± 102.46* mm^3, the “Tumor weight (g,Mean±SEM) Day 21” value [2, 5] was 0.529 ± 0.055 g and the “Tumor weight (g,Mean±SEM) Day 21” value [2, 6] was 0.498 ± 0.059 g. For the same compound, the “Relative tumor volume Day 21” value [2, 7] was 6.12±0.29, the “Relative tumor volume Day 21” value [2, 8] was 5.99±0.48 and the Fatality [3] was 0/10 (Day 21). The “Relative tumor proliferation rate(%) Day 21” value [4, 9] was 93.04%, the “Relative tumor proliferation rate(%) Day 21” value [4, 10] was 93.23% and the “Tumor growth inhibition rate(%) Day 21” value ([4]; QD×21) was 12.99%. The “Tumor growth inhibition rate(%) Day 21” value [4, 10] was 12.33%, the “Tumor inhibition rate(%) Day 21” value [4, 9] was 15.76% and the “Tumor inhibition rate(%) Day 21” value [4, 10] was 7.06%. The “Tumor volume (mm^3,Mean±SEM) Day 21” value ([4]; listed as Comparative Example 2) was 1536.24 ±222.57 mm^3, the “Tumor volume (mm^3,Mean±SEM) Day 21” value ([4]; listed as Comparative Example 3) was 1547.91 ±221.67 mm^3 and the “Tumor weight (g,Mean±SEM) Day 21” value [4, 9] was 1.384 ± 0.266 g. The “Tumor weight (g,Mean±SEM) Day 21” value [4, 10] was 1.527 ± 0.257 g, the “Relative tumor volume Day 21” value [4, 9] was 10.03 +1.27 and the “Relative tumor volume Day 21” value [4, 10] was 10.05 ±1.30.
